According to EP3071301B1, “QUERCUS PLANT EXTRACT AS ACTIVE AGENT WITH SKIN ANTI-AGEING PROPERTIES AND COSMETIC COMPOSITIONS CONTAINING IT” (Charlois Cosmetiques, priority 2013, dated 2015):
Values belong to the molecule of their own block, whether it stands above or below them.

Columns and labels:
MMP totales = assay: Total matrix metalloprotease (MMP) activity inhibition, fluorogenic peptide; assay type: biochemical, humains
Excerpt: Le principe actif E2 conforme à l'invention est soumis au test suivant, à des concentrations de 1 et 3 % p/p, selon le protocole décrit dans la publication de Sim et al., 2007, Arch Pharm Res, 30(3): 290-298.
Les MMP totales (obtenues selon un protocole standard à partir de surnageants de fibroblastes dermiques humains normaux, irradiés avec des UVB (20 mJ/cm^2)) sont traitées par le mélange inflammatoire acétate de phorbol myristate (PMA) et facteur de nécrose tumorale (TNFα).
Le substrat fluorescent est le peptide fluorogénique décrit dans la publication de Lee et al., 1999, Annals of the New York Academy of Sciences, 878: 635-637, et commercialisé sous la référence M6412 par la société Sigma-Aldrich.
Le principe actif E2 conforme à l'invention ou le témoin (O-phénantroline testée à 0,03; 0,1; 0,3 et 1 mM) sont préincubés pendant 10 min sur glace en présence des MMP totales activées, puis le substrat fluorescent est ajouté. Les plaques ont été incubées pendant 3h à 37°C. Un contrôle d'interférence du composé (composé en présence du mélange réactionnel sans enzyme) et un contrôle « quenching » (mélange réactionnel contenant le substrat et l'enzyme dans lequel le composé n'est ajouté qu'en fin d'incubation) ont été réalisés en parallèle. Le contrôle […] permet de vérifier l'absorption non spécifique de la fluorescence par le composé et donc la spécificité de l'inhibition observée dans la condition test correspondante.
(§1) Chaque expérience est tripliquée.
A la fin de l'incubation, la fluorescence produite suite à la dégradation du substrat est mesurée par fluorimétrie pour une longueur d'onde d'excitation de 328 nm et une longueur d'onde d'émission de 393 nm, au moyen du dispositif SpectroMax Gemini, Molecular Devices.
Le % d'inhibition des MMPs totales est calculé pour chaque échantillon testé. Les résultats obtenus sont montrés dans le tableau 6 ci-après. Tableau 6 - Inhibition de l'activité des MMP totales par le principe actif E2 conforme à l'invention

[1] = molecular target: T1, hyaluronidase (EC 3.2.1.35) (Bos taurus, UniProt Q2YDK3); assay: Hyaluronidase activity inhibition (Experiment A); assay type: biochemical
T1 sequence (Q2YDK3 36-553): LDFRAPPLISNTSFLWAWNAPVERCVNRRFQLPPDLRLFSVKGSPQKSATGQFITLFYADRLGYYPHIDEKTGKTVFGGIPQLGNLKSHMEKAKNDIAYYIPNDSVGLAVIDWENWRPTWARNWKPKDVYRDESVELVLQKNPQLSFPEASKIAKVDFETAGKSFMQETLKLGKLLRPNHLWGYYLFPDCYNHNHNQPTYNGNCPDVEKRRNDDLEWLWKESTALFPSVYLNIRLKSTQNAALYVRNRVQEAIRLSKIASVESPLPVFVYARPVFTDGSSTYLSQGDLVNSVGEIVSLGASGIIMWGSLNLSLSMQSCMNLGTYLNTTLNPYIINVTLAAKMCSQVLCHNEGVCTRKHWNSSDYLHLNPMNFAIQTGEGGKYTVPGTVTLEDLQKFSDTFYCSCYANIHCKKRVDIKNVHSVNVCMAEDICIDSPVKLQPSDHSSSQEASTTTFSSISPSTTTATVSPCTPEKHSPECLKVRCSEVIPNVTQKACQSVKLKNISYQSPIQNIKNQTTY
Excerpt: (§2) Le principe actif E2 conforme à l'invention est soumis au test suivant, à des concentrations de 0,1; 0,3; 0,5; 1; 3 % p/p (% en poids de principe actif à tester, par rapport au poids final de milieu contenant le principe actif).
Le substrat est l'acide hyaluronique, testé à 0,04 % en tampon phosphate de sodium.
L'enzyme est la hyaluronidase (EC 3.2.1.35) testée à 10 U/ml en tampon phosphate de sodium / chlorure de sodium / BSA.
Le principe actif selon l'invention et les témoins (vitamine C à 10 mg/l et palmitate d'ascorbyle à 200 µg/ml) sont mis en présence de la hyaluronidase et incubés pendant 10 min à 37 °C sous agitation. L'acide hyaluronique est ensuite ajouté et les mélanges réactionnels sont incubés à 37 °C pendant 2 h. Des conditions contrôles additionnelles sont réalisées en incubant le produit et le substrat en l'absence de l'enzyme, ou en incubant le produit seul correspondant à un contrôle interférence. La réaction enzymatique est ensuite stoppée par précipitation de l'acide hyaluronique avec une solution d'albumine de sérum bovin (BSA). L'absorption (DO) à 540 nm est mesurée à l'aide d'un lecteur de microplaques (ThermoMax, Molecular Devices).
as §1
(§3) Les résultats sont exprimés en pourcentage d'activité de la hyaluronidase et en pourcentage d'inhibition de l'activité de la hyaluronidase. […]

[2] = Hydrogen peroxide assay (Amplex Red Hydrogen Peroxide/Peroxidase kit); settings: hydrogen peroxide; 50 µM; 30 min
Excerpt: as §2
L'essai est réalisé au moyen du kit de dosage Amplex® Red Hydrogen Peroxyde/Peroxydase Assay Kit (Molecular Probes®), dont le réactif 10-acétyl-3,7-dihydroxyphénoxazine est utilisé pour déterminer la quantité de peroxyde d'hydrogène présent. Le substrat non coloré réagit avec le peroxyde d'hydrogène (H2O2) dans un rapport stoechiométrique 1:1 pour produire de la résofurine hautement fluorescente. […]
Le principe actif selon l'invention et le BHA (3-tert-butyl-4-hydroxyanisole), en tant que témoin, à une concentration de 50 µM, sont incubés en présence d'H2O2, de réactif Amplex® Red et d'enzyme Horse Radish Peroxydase (HRP) pendant 30 min à température ambiante. Puis la fluorescence est mesurée, pour une longueur d'onde d'excitation de 540 nm et une longueur d'onde d'émission de 590 nm.
Des contrôles d'auto-fluorescence et d'absorption de fluorescence (quenching) sont aussi réalisés pour chaque concentration de principe actif selon l'invention et du témoin. Les contrôles d'absorption de fluorescence sont réalisés en incubant le peroxyde d'hydrogène (H2O2), le réactif Amplex® Redet l'enzyme HRP pendant 30 min. […]

[3] = molecular target: T2, hyaluronidase bovine (EC 3.2.1.35) (Bos taurus, UniProt Q2YDK3); assay: Hyaluronidase enzymatic activity inhibition (Experiment B); assay type: biochemical
T2 sequence (Q2YDK3 36-553): T1 sequence (Q2YDK3 36-553)
Method: L'enzyme est la hyaluronidase bovine (EC 3.2.1.35), préparée tampon phosphate de sodium / chlorure de sodium / BSA, pH 7, et utilisée à 10 U/ml.
Le substrat est l'acide hyaluronique, préparé en tampon phosphate de sodium à pH 5,35 et testé à […].
Les principes actifs selon l'invention et la référence (acide 6-O-palmitoylascorbique, noté APA, testé à 300 µg/ml) sont mis en présence de la hyaluronidase et pré-incubés pendant 10 min à 37 °C sous agitation. L'acide hyaluronique est ensuite ajouté et les mélanges réactionnels sont incubés à 37 °C pendant 2 h. Des conditions contrôles sont réalisées en parallèle en incubant les principes actifs ou la référence en présence du substrat mais en absence de l'enzyme (Contrôle sans enzyme) ou en incubant les principes actifs ou la référence seuls (Contrôle interférence). Il est également réalisé un témoin en incubant l'enzyme seule (Témoin).
La réaction enzymatique est ensuite stoppée par précipitation de l'acide hyaluronique avec une solution tampon contenant de l'albumine de sérum bovin (BSA) à pH 3,75. […] L'activité est inversement proportionnelle à la valeur de DO mesurée.
as §1, §3

Compound: c1cnc2c(c1)ccc1cccnc12 [O-Phénanthroline]
% inhibition (MMP totales; 0,1 mM, 100 µM): 15%
% inhibition (MMP totales; 0,03 mM, 30 µM): 1%
% inhibition (MMP totales; 0,3 mM, 300 µM): 73%
% inhibition (MMP totales; 1 mM): 97%

Compound: COc1ccc(O)c(C(C)(C)C)c1 [BHA, 3-tert-butyl-4-hydroxyanisole]
% inhibition [2]: 60%

Compound: CCCCCCCCCCCCCCCC(=O)OC[C@H](O)[C@H]1OC(=O)C(O)=C1O [APA, acide 6-O-palmitoylascorbique]
inhibition at 300 µg/mL [3]: 79%
activity at 300 µg/mL ([3]; read-out: Activité hyaluronidase (%)): 21%

Now from value to molecule:

inhibition at 10000 µg/mL ([1]; 10 mg/ml): 71%
Compound: O=C1O[C@H]([C@@H](O)CO)C(O)=C1O [Vitamine C]

inhibition at 200 µg/mL ([1]; 200 µg/ml): 80%
Compound: CCCCCCCCCCCCCCCC(=O)OC[C@H](O)[C@H]1OC(=O)C(O)=C1O [Palmitate d'ascorbyle, palmitate d'ascorbyle]
